Source: patent US20250163119A1, “COMPOUNDS FOR THE TREATMENT OF DIABETES OR OBESITY” (Eli Lilly and Company, priority 2023, published 2025)
*1 amine or outer side, *2 acyl side, *3 side chain or, on linkers, in order; H or OH if unused. Where a SMILES comes first, the peptide text is derived from it. Side-chain parts run from the residue outwards. [ ]: non-standard residue; d: D form. The star is where a group is joined. C20 diacid = O=C(O)CCCCCCCCCCCCCCCCCCC(=O)*; γGlu = O=C(O)[C@H](CCC(=O)[*:2])N[*:1]; εLys = N[C@@H](CCCCN[*:1])C(=O)[*:2]; αMeL = CC(C)C[C@](C)(N)C(=O)O; Dap = NC[C@H](N)C(=O)O; AEEA = NCCOCCOCC(=O)O; Aib = CC(C)(N)C(=O)O

How the values were obtained:
human CRHR1 = target: T1, human CRHR1 (Homo sapiens, UniProt P34998); assay: Human CRHR1 cAMP assay (HTRF) in HEK293 cells stably expressing human CRHR1; type: cell-based; conditions: HEK293 cells overexpressing human CRHR1; relative EC50, maximum 66 nM human UCN1; mean ± SE; read-out: hCRHR1 cAMP EC50 (pM, ± SE)
T1 construct: expressed in transfected cells
T1 sequence (P34998 24-415): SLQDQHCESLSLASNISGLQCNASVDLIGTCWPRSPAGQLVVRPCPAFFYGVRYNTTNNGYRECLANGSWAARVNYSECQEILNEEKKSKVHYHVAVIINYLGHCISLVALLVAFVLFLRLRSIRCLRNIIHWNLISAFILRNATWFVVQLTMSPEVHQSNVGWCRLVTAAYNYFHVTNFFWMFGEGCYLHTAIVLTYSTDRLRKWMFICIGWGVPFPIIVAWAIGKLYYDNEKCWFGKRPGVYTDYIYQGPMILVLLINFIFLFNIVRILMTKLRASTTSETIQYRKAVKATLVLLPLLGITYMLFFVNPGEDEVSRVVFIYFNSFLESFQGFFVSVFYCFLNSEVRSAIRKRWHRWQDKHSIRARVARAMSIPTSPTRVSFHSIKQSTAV
Method: (§1) The corticotropin-releasing hormone (CRH) receptor 1 and 2 (CRHR1 and CRHR2) are GPCRs that were functionally coupled to Gs proteins. Stimulation of these receptors results in an increased production of intracellular cAMP, which can be detected using standard in vitro technologies. In vitro activity of peptides was measured by the amount of cAMP formed in human CRHR1 and CRHR2 overexpressed cells.
(§2) Human CRHR1 and CRHR2 receptors were stably expressed in human embryonic kidney cells (HEK293) under control of a pcDNA expression vector. The HEK293 cell line was cultured in DMEM 1× (Gibco, 93-0152DK) supplemented with 10% FBS, 1 mM sodium pyruvate, 1×MEM NEAA, 1× GlutaMAX and 10 mM HEPES. The plasmids of human CRHR1-pQCXIP (T7364) and human CRHR2b-R2683puro (T16761) DNA were transfected into HEK293 cells using Lipo fectAMINE 3000 Transfection reagent (Invitrogen, L3000001). After 20 days under selection, the mRNA levels from different clones were measured to confirm the expression of human CRHR1 and CRHR2 genes. To determine the function of over-expressed CRHR cells, the intracellular cAMP levels in response to human UCN1 and UCN2 were measured and compared to the expression of CRHR1 and CRHR2 mRNA in each clone.
(§3) Human CRHR1 cells were cultured in DMEM 1× (Gibco, 93-0152DK) supplemented with 10% FBS, 1 mM sodium pyruvate, 1×MEM NEAA, 1×GlutaMAX, 10 mM HEPES, and 800 μg/ml G418. Human CRHR2 cells were cultured at the same media (DMEM 1×, 10% FBS, 1 mM sodium pyruvate, 1×MEM NEAA, 1×GlutaMAX, 10 mM HEPES) in the presence of 0.5 ug/mL puromycin. Cultured cells were grown to 90% confluency and harvested. The cells were frozen at 10×10e6/ml in a mixture of […] fetal bovine serum plus 7% DMSO and stored in liquid nitrogen until use.
(§4) On the day of the assay, the frozen cells were thawed and diluted in assay buffer (Phenol Red free MEM (Corning, 17-305-CV, lot #32121010), 0.1% Casein (Sigma C4765, lot #SLCG2120), 5 mM HEPES pH 7.4 containing 0.25 mM IBMX). 10 ul of human CRHR1 cells (25,000 cells) or 10 μL of human CRHR2 cells (5,000 cells) were dispensed into each well of white poly-D-lysine coated 384-well plates (Corning cat #354661). Test compounds diluted in DMSO were added (200 nL/well) in a 1:3 dilution series using ECHO acoustic liquid handler (Beckman). The mixture of cells and test compounds were incubated at 37° C. for 1 hour for the hCRHR1 plate, while the CRHR2 plates were incubated at room temperature for 30 min.
(§5) The amount of intracellular cAMP was quantitated using HTRF technology (Homogeneous Time Resolved Fluorescence; Cisbio) as per vendor instructions. Briefly, 10 uL CAMP-d2 conjugate and 10 uL anti-CAMP-cryptate conjugate in lysis buffer were incubated with the treated cells at room temperature for 60 min. The HTRF signal was immediately detected using an Envision plate reader (Perkin-Elmer) to calculate the ratio of fluorescence at 665 to 620 nm.
(§6) Raw fluorescence data for concentration curves of the peptides in Table 2 and Table 3 were converted to cAMP amount (pmol/well) using a cAMP standard curve generated for each experiment.

human CRHR2 = target: T2, human CRHR2 (Homo sapiens, UniProt Q13324); assay: Human CRHR2 cAMP assay (HTRF) in HEK293 cells stably expressing human CRHR2; type: cell-based; conditions: HEK293 cells overexpressing human CRHR2; relative EC50, maximum 10 nM human UCN2; mean ± SE; read-out: hCRHR2 cAMP EC50 (pM, ± SE)
T2 construct: expressed in transfected cells
T2 sequence (Q13324 1-438 isoform Q13324-2): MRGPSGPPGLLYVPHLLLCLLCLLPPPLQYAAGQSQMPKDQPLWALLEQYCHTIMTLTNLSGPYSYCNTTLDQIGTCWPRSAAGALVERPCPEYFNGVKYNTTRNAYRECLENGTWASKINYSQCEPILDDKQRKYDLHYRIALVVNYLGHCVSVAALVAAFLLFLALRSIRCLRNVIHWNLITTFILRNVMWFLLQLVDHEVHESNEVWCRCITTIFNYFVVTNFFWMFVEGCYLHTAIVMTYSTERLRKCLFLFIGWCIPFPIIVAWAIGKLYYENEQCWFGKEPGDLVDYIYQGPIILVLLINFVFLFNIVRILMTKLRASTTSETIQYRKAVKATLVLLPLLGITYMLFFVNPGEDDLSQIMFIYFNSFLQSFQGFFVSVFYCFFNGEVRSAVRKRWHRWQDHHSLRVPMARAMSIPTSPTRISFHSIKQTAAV
Method: as §1, §2, §3, §4, §5, §6

An EC50 (human CRHR1) greater than 1e+07 pM and an EC50 (human CRHR2) of 10.1 ± 2.5 pM were found for `CC[C@H](C)[C@H](NC(=O)[C@H](CCC(=O)O)NC(=O)[C@H](C)NC(=O)[C@H](C)NC(=O)[C@H](CCC(=O)O)NC(=O)[C@H](CCCCNC(=O)CC[C@H](NC(=O)CNC(=O)[C@H](CCCCN)NC(=O)[C@H](CCC(=O)O)NC(=O)[C@H](CCCCN)NC(=O)[C@H](CCC(=O)O)NC(=O)[C@H](CCCCN)NC(=O)[C@H](CCC(=O)O)NC(=O)CCCCCCCCCCCCCCCCCCC(=O)O)C(=O)O)NC(=O)[C@H](C)NC(=O)[C@H](CCC(N)=O)NC(=O)[C@H](CCC(N)=O)NC(=O)[C@H](CCCNC(=N)N)NC(=O)[C@H](C)NC(=O)[C@H](CCCCN)NC(=O)[C@H](CCC(=O)O)NC(=O)[C@H](C)NC(=O)[C@H](CCCNC(=N)N)NC(=O)[C@H](CCC(=O)O)NC(=O)[C@H](CCC(N)=O)NC(=O)[C@H](CCC(=O)O)NC(=O)[C@H](CC(C)C)NC(=O)[C@@H](NC(=O)[C@H](CCCCN)NC(=O)[C@H](CCC(N)=O)NC(=O)[C@H](CC(C)C)NC(=O)[C@](C)(CC(C)C)NC(=O)C(C)(C)NC(=O)[C@@H](NC(=O)[C@@H]1CCCN1C(=O)[C@@H](NC(=O)[C@H](CC(=O)O)NC(=O)[C@](C)(CC(C)C)NC(=O)[C@H](CO)NC(=O)[C@@H](NC(=O)[C@@H](NC(=O)[C@@H](NC(=O)[C@H](CO)NC(=O)[C@@H]1CCCN1C(=O)[C@H](CO)NC(=O)CNC(C)=O)[C@@H](C)CC)C(C)C)[C@@H](C)O)C(C)C)[C@@H](C)O)[C@@H](C)CC)C(=O)N[C@@H](CC(C)C)C(=O)N[C@@H](C)C(=O)N[C@@H](CCC(N)=O)C(=O)N[C@H](C(N)=O)C(C)C` [SEQ ID NO: 6, Ac-GSPSIVTS αMeL DVPT Aib αMeL LQKILEQERAEKARQQAK(γE-GKEKEKE-CO-(CH2)18-CO2H)EAAEILAQV-NH2] in this work.
An EC50 (human CRHR2) of 4.4 ± 0.4 pM was found for `CC[C@H](C)[C@H](NC(C)=O)C(=O)N[C@H](C(=O)N[C@H](C(=O)N[C@@H](CO)C(=O)N[C@@](C)(CC(C)C)C(=O)N[C@@H](CC(=O)O)C(=O)N[C@@H](C(=O)N1CCC[C@H]1C(=O)N[C@H](C(=O)NCC(=O)N[C@@](C)(CC(C)C)C(=O)N[C@@H](CC(C)C)C(=O)N[C@@H](CCC(N)=O)C(=O)N[C@H](C(=O)N[C@@H](CCCCN)C(=O)N[C@@H](CC(C)C)C(=O)N[C@@H](CCC(=O)O)C(=O)N[C@@H](CCC(N)=O)C(=O)N[C@@H](CCC(=O)O)C(=O)N[C@@H](CCCNC(=N)N)C(=O)N[C@@H](C)C(=O)N[C@@H](CCC(=O)O)C(=O)N[C@@H](CCCCN)C(=O)N[C@@H](C)C(=O)N[C@@H](CCCNC(=N)N)C(=O)N[C@@H](CCC(N)=O)C(=O)N[C@@H](CCC(N)=O)C(=O)N[C@@H](C)C(=O)N[C@@H](CCCCNC(=O)CC[C@H](NC(=O)COCCOCCNC(=O)[C@@H](N)CCCCNC(=O)CCCCCCCCCCCCCCCCCCC(=O)O)C(=O)O)C(=O)N[C@@H](CCC(=O)O)C(=O)N[C@@H](CC(N)=O)C(=O)N[C@H](C(=O)N[C@@H](CCC(=O)O)C(=O)N[C@H](C(=O)N[C@@H](CC(C)C)C(=O)N[C@@H](C)C(=O)N[C@@H](CCC(N)=O)C(=O)N[C@H](C(N)=O)C(C)C)[C@@H](C)CC)[C@@H](C)O)[C@@H](C)CC)[C@@H](C)O)C(C)C)[C@@H](C)O)C(C)C` [SEQ ID NO: 36, Ac-IVTS αMeL D (D-Val) PTG αMeL LQIKLEQERAEKARQQAK(γE-(2-[2-(2-Amino-ethoxy)-ethoxy]-acetyl)-ϵK-CO-(CH2)18-CO2H)ENTEILAQV-NH2] (Ac-IVTS[αMeL]D[dV]PTG[αMeL]LQIKLEQERAEKARQQAK([γGlu-AEEA-εLys-C20 diacid])ENTEILAQV-NH2) in this work.
An EC50 (human CRHR2) of 5 ± 0.2 pM was found for `CC[C@H](C)[C@H](NC(C)=O)C(=O)N[C@H](C(=O)N[C@H](C(=O)N[C@@H](CO)C(=O)N[C@@](C)(CC(C)C)C(=O)N[C@@H](CC(=O)O)C(=O)N[C@@H](C(=O)N1CCC[C@H]1C(=O)N[C@H](C(=O)NCC(=O)N[C@@](C)(CC(C)C)C(=O)N[C@@H](CC(C)C)C(=O)N[C@@H](CCC(N)=O)C(=O)N[C@H](C(=O)N[C@@H](CCCCN)C(=O)N[C@@H](CC(C)C)C(=O)N[C@@H](CCC(=O)O)C(=O)N[C@@H](CCC(N)=O)C(=O)N[C@@H](CCC(=O)O)C(=O)N[C@@H](CCCNC(=N)N)C(=O)N[C@@H](C)C(=O)N[C@@H](CCC(=O)O)C(=O)N[C@@H](CCCCN)C(=O)N[C@@H](C)C(=O)N[C@@H](CCCNC(=N)N)C(=O)N[C@@H](CCC(N)=O)C(=O)N[C@@H](CCC(N)=O)C(=O)N[C@@H](C)C(=O)N[C@@H](CCCCNC(=O)CC[C@H](NC(=O)[C@@H](N)CCCCNC(=O)COCCOCCNC(=O)CCCCCCCCCCCCCCCCCCC(=O)O)C(=O)O)C(=O)N[C@@H](CCC(=O)O)C(=O)N[C@@H](CC(N)=O)C(=O)N[C@H](C(=O)N[C@@H](CCC(=O)O)C(=O)N[C@H](C(=O)N[C@@H](CC(C)C)C(=O)N[C@@H](C)C(=O)N[C@@H](CCC(N)=O)C(=O)N[C@H](C(N)=O)C(C)C)[C@@H](C)CC)[C@@H](C)O)[C@@H](C)CC)[C@@H](C)O)C(C)C)[C@@H](C)O)C(C)C` [SEQ ID NO: 37, Ac-IVTS αMeL D (D-Val) PTG αMeL LQIKLEQERAEKARQQAK(γE-ϵK-(2-[2-(2-Amino-ethoxy)-ethoxy]-acetyl)-CO-(CH2)18-CO2H)ENTEILAQV-NH2] (Ac-IVTS[αMeL]D[dV]PTG[αMeL]LQIKLEQERAEKARQQAK([γGlu-εLys-AEEA-C20 diacid])ENTEILAQV-NH2) in this work.
An EC50 (human CRHR2) of 6.6 ± 0.5 pM was found for “{C20 diacid}-[Dap][AEEA][γGlu]GSPSIVTS[αMeL]DVPT[Aib][αMeL]LEKILEQERAEKARQQATEAAEILAQV-NH2 [SEQ ID NO: 52]” in this work.
